Reference: patent publication US10004701B2, “Methods and compositions for treating infection” (UNIVERSITY OF ROCHESTER, priority 2012, dated 2018)
Counter-ions that a name gives are not always drawn. Like-named read-outs stand apart in the source and are kept apart here.

Columns and labels:
Assay in all cases: AK assay 384-well format, Prestwick library screening
E. coli = format: cell-based, Escherichia coli; conditions: 50 μM final drug concentration; for fold induction at 50 µM: Escherichia coli, 3 h
E. faecium = format: cell-based, Enterococcus faecium; conditions: 50 μM final drug concentration; for fold induction at 50 µM: Enterococcus faecium, 3 h
K. pneumoniae = format: cell-based, Klebsiella pneumoniae; conditions: 50 μM final drug concentration; for fold induction at 50 µM: Klebsiella pneumoniae, 3 h
E. cloacae = format: cell-based, Enterobacter cloacae; conditions: 50 μM final drug concentration; for fold induction at 50 µM: Enterobacter cloacae, 3 h
[1] = test system: S. aureus strain USA300-0114; format: cell-based, Staphylococcus aureus; conditions: 50 μM final drug concentration; for fold induction at 50 µM: Staphylococcus aureus, USA300, 3 h
P. aeruginosa = format: cell-based, Pseudomonas aeruginosa; conditions: 50 μM final drug concentration; for fold induction at 50 µM: Pseudomonas aeruginosa, 3 h
[2] = test system: A. baumannii strain 98-37-09; format: cell-based, Acinetobacter baumannii; conditions: 50 μM final drug concentration; for fold induction at 50 µM: Acinetobacter baumannii, 983709, 3 h
[3] = cutoff for positive-scoring molecules 3-fold increase, read-out: AK-based Prestwick Library Screening Results, E. coli (fold increase in extracellular AK activity)
[4] = cutoff for positive-scoring molecules 3-fold increase, read-out: AK-based Prestwick Library Screening Results, E. faecium (fold increase in extracellular AK activity)
[5] = cutoff for positive-scoring molecules 3-fold increase, read-out: AK-based Prestwick Library Screening Results, K. pneumoniae (fold increase in extracellular AK activity)
[6] = cutoff for positive-scoring molecules 3-fold increase, read-out: AK-based Prestwick Library Screening Results, E. cloacae (fold increase in extracellular AK activity)
[7] = cutoff for positive-scoring molecules 3-fold increase, read-out: AK-based Prestwick Library Screening Results, S. aureus (fold increase in extracellular AK activity)
[8] = cutoff for positive-scoring molecules 3-fold increase, read-out: AK-based Prestwick Library Screening Results, P. aeruginosa (fold increase in extracellular AK activity)
[9] = cutoff for positive-scoring molecules 3-fold increase, read-out: AK-based Prestwick Library Screening Results, A. baumannii (fold increase in extracellular AK activity)
[10] = planktonic, cutoff for positive-scoring molecules 3-fold increase, read-out: AK-based Prestwick Library Screening Results, E. coli (fold increase in extracellular AK activity)
[11] = planktonic, cutoff for positive-scoring molecules 3-fold increase, read-out: AK-based Prestwick Library Screening Results, E. faecium (fold increase in extracellular AK activity)
[12] = planktonic, cutoff for positive-scoring molecules 3-fold increase, read-out: AK-based Prestwick Library Screening Results, K. pneumoniae (fold increase in extracellular AK activity)
[13] = planktonic, cutoff for positive-scoring molecules 3-fold increase, read-out: AK-based Prestwick Library Screening Results, E. cloacae (fold increase in extracellular AK activity)
[14] = planktonic, cutoff for positive-scoring molecules 3-fold increase, read-out: AK-based Prestwick Library Screening Results, S. aureus (fold increase in extracellular AK activity)
[15] = planktonic, cutoff for positive-scoring molecules 3-fold increase, read-out: AK-based Prestwick Library Screening Results, P. aeruginosa (fold increase in extracellular AK activity)
[16] = planktonic, cutoff for positive-scoring molecules 3-fold increase, read-out: AK-based Prestwick Library Screening Results, A. baumannii (fold increase in extracellular AK activity)

CCCCOc1cc(C(=O)OCCN(CC)CC)ccc1N [Benoxinate hydrochloride]
fold induction at 50 µM (E. coli; planktonic E. coli, 384-well, cutoff for positive-scoring molecules 3-fold increase, read-out: AK-based Prestwick Library Screening Results: E. coli (increase in extracellular AK activity)): 1.3
fold induction at 50 µM (E. faecium; planktonic E. faecium, 384-well, cutoff for positive-scoring molecules 3-fold increase, read-out: AK-based Prestwick Library Screening Results: E. faecium (increase in extracellular AK activity)): 0.9
fold induction at 50 µM (K. pneumoniae; planktonic K. pneumoniae, 384-well, cutoff for positive-scoring molecules 3-fold increase, read-out: AK-based Prestwick Library Screening Results: K. pneumoniae (increase in extracellular AK activity)): 1
fold induction at 50 µM (E. cloacae; planktonic E. cloacae, 384-well, cutoff for positive-scoring molecules 3-fold increase, read-out: AK-based Prestwick Library Screening Results: E. cloacae (increase in extracellular AK activity)): 1.4
fold induction at 50 µM ([1]; planktonic S. aureus, 384-well, cutoff for positive-scoring molecules 3-fold increase, read-out: AK-based Prestwick Library Screening Results: S. aureus (increase in extracellular AK activity)): 1
fold induction at 50 µM (P. aeruginosa; planktonic P. aeruginosa, 384-well, cutoff for positive-scoring molecules 3-fold increase, read-out: AK-based Prestwick Library Screening Results: P. aeruginosa (increase in extracellular AK activity)): 0.9
fold induction at 50 µM ([2]; planktonic A. baumannii, 384-well, cutoff for positive-scoring molecules 3-fold increase, read-out: AK-based Prestwick Library Screening Results: A. baumannii (increase in extracellular AK activity)): 1.1

O=C(CCCN1CCC(n2c(O)nc3ccccc32)CC1)c1ccc(F)cc1 [Benperidol]
fold induction at 50 µM (E. coli; planktonic E. coli, cutoff for positive-scoring molecules 3-fold increase, read-out: AK-based Prestwick Library Screening Results, E. coli (increase in extracellular AK activity)): 0.6
fold induction at 50 µM (E. faecium; planktonic E. faecium, cutoff for positive-scoring molecules 3-fold increase, read-out: AK-based Prestwick Library Screening Results, E. faecium (increase in extracellular AK activity)): 1
fold induction at 50 µM (K. pneumoniae; planktonic K. pneumoniae, cutoff for positive-scoring molecules 3-fold increase, read-out: AK-based Prestwick Library Screening Results, K. pneumoniae (increase in extracellular AK activity)): 0.5
fold induction at 50 µM (E. cloacae; planktonic E. cloacae, cutoff for positive-scoring molecules 3-fold increase, read-out: AK-based Prestwick Library Screening Results, E. cloacae (increase in extracellular AK activity)): 0.6
fold induction at 50 µM ([1]; planktonic S. aureus, cutoff for positive-scoring molecules 3-fold increase, read-out: AK-based Prestwick Library Screening Results, S. aureus (increase in extracellular AK activity)): 0.5
fold induction at 50 µM (P. aeruginosa; planktonic P. aeruginosa, cutoff for positive-scoring molecules 3-fold increase, read-out: AK-based Prestwick Library Screening Results, P. aeruginosa (increase in extracellular AK activity)): 0.6
fold induction at 50 µM ([2]; planktonic A. baumannii, cutoff for positive-scoring molecules 3-fold increase, read-out: AK-based Prestwick Library Screening Results, A. baumannii (increase in extracellular AK activity)): 0.5

NC(CO)C(=O)NNCc1ccc(O)c(O)c1O (stereo not drawn) [Benserazide hydrochloride]
fold induction at 50 µM (E. coli; [3]): 1.3
fold induction at 50 µM (E. faecium; [4]): 0.9
fold induction at 50 µM (K. pneumoniae; [5]): 1.2
fold induction at 50 µM (E. cloacae; [6]): 1.8
fold induction at 50 µM [1, 7]: 1.4
fold induction at 50 µM (P. aeruginosa; [8]): 1.1
fold induction at 50 µM [2, 9]: 1

NC(=NCc1ccccc1)NC(=O)c1nc(Cl)c(N)nc1N [Benzamil hydrochloride]
fold induction at 50 µM (E. coli; [10]): 0.6
fold induction at 50 µM (E. faecium; [11]): 1.1
fold induction at 50 µM (K. pneumoniae; [12]): 0.6
fold induction at 50 µM (E. cloacae; [13]): 0.7
fold induction at 50 µM [1, 14]: 0.7
fold induction at 50 µM (P. aeruginosa; [15]): 0.6
fold induction at 50 µM [2, 16]: 0.6

CC1(C)S[C@@H]2[C@H](NC(=O)Cc3ccccc3)C(=O)N2[C@H]1C(=O)O.CC1(C)S[C@@H]2[C@H](NC(=O)Cc3ccccc3)C(=O)N2[C@H]1C(=O)O.c1ccc(CNCCNCc2ccccc2)cc1 [Benzathine benzylpenicillin]
AK-based Prestwick library screening result, E. coli (fold increase in extracellular AK activity) (E. coli; planktonic E. coli, positive cutoff 3-fold increase): 15.6
AK-based Prestwick library screening result, E. faecium (fold increase in extracellular AK activity) (E. faecium; planktonic E. faecium, positive cutoff 3-fold increase): 1.6
AK-based Prestwick library screening result, K. pneumoniae (fold increase in extracellular AK activity) (K. pneumoniae; planktonic K. pneumoniae, positive cutoff 3-fold increase): 1.0
AK-based Prestwick library screening result, E. cloacae (fold increase in extracellular AK activity) (E. cloacae; planktonic E. cloacae, positive cutoff 3-fold increase): 1.6
AK-based Prestwick library screening result, S. aureus (fold increase in extracellular AK activity) ([1]; planktonic S. aureus, positive cutoff 3-fold increase): 1.0
AK-based Prestwick library screening result, P. aeruginosa (fold increase in extracellular AK activity) (P. aeruginosa; planktonic P. aeruginosa, positive cutoff 3-fold increase): 1.1
AK-based Prestwick library screening result, A. baumannii (fold increase in extracellular AK activity) ([2]; planktonic A. baumannii, positive cutoff 3-fold increase): 5.9

CCc1oc2ccccc2c1C(=O)c1cc(Br)c(O)c(Br)c1 [Benzbromarone]
fold induction at 50 µM (E. coli; planktonic, cutoff for positive 3-fold increase, read-out: AK-based Prestwick Library Screening Results, E. coli (fold increase in extracellular AK activity)): 1.1
fold induction at 50 µM (E. faecium; planktonic, cutoff for positive 3-fold increase, read-out: AK-based Prestwick Library Screening Results, E. faecium (fold increase in extracellular AK activity)): 1.2
fold induction at 50 µM (K. pneumoniae; planktonic, cutoff for positive 3-fold increase, read-out: AK-based Prestwick Library Screening Results, K. pneumoniae (fold increase in extracellular AK activity)): 0.9
fold induction at 50 µM (E. cloacae; planktonic, cutoff for positive 3-fold increase, read-out: AK-based Prestwick Library Screening Results, E. cloacae (fold increase in extracellular AK activity)): 1.4
fold induction at 50 µM ([1]; planktonic, cutoff for positive 3-fold increase, read-out: AK-based Prestwick Library Screening Results, S. aureus (fold increase in extracellular AK activity)): 0.4
fold induction at 50 µM (P. aeruginosa; planktonic, cutoff for positive 3-fold increase, read-out: AK-based Prestwick Library Screening Results, P. aeruginosa (fold increase in extracellular AK activity)): 1.5
fold induction at 50 µM ([2]; planktonic, cutoff for positive 3-fold increase, read-out: AK-based Prestwick Library Screening Results, A. baumannii (fold increase in extracellular AK activity)): 1.4

CCOC(=O)c1ccc(N)cc1 [Benzocaine]
fold induction at 50 µM (E. coli; [3]): 1.1
fold induction at 50 µM (E. faecium; [4]): 1
fold induction at 50 µM (K. pneumoniae; [5]): 0.9
fold induction at 50 µM (E. cloacae; [6]): 1.6
fold induction at 50 µM [1, 7]: 1.2
fold induction at 50 µM (P. aeruginosa; [8]): 1.1
fold induction at 50 µM [2, 9]: 1.2

CCCCNc1ccc(C(=O)OCCOCCOCCOCCOCCOCCOCCOCCOCCOC)cc1 [Benzonatate]
fold induction at 50 µM (E. coli; 384-well format, cutoff for positive-scoring molecules 3-fold increase, read-out: AK-based Prestwick Library Screening Results, E. coli (increase in extracellular AK activity)): 0.7
fold induction at 50 µM (E. faecium; 384-well format, cutoff for positive-scoring molecules 3-fold increase, read-out: AK-based Prestwick Library Screening Results, E. faecium (increase in extracellular AK activity)): 0.8
fold induction at 50 µM (K. pneumoniae; 384-well format, cutoff for positive-scoring molecules 3-fold increase, read-out: AK-based Prestwick Library Screening Results, K. pneumoniae (increase in extracellular AK activity)): 0.6
fold induction at 50 µM (E. cloacae; 384-well format, cutoff for positive-scoring molecules 3-fold increase, read-out: AK-based Prestwick Library Screening Results, E. cloacae (increase in extracellular AK activity)): 0.7
fold induction at 50 µM ([1]; 384-well format, cutoff for positive-scoring molecules 3-fold increase, read-out: AK-based Prestwick Library Screening Results, S. aureus (increase in extracellular AK activity)): 0.7
fold induction at 50 µM (P. aeruginosa; 384-well format, cutoff for positive-scoring molecules 3-fold increase, read-out: AK-based Prestwick Library Screening Results, P. aeruginosa (increase in extracellular AK activity)): 0.6
fold induction at 50 µM ([2]; 384-well format, cutoff for positive-scoring molecules 3-fold increase, read-out: AK-based Prestwick Library Screening Results, A. baumannii (increase in extracellular AK activity)): 0.7

NS(=O)(=O)c1cc2c(cc1Cl)N=C(CSCc1ccccc1)NS2(=O)=O [Benzthiazide]
fold induction at 50 µM (E. coli; [10]): 0.9
fold induction at 50 µM (E. faecium; [11]): 1.4
fold induction at 50 µM (K. pneumoniae; [12]): 0.8
fold induction at 50 µM (E. cloacae; [13]): 1.1
fold induction at 50 µM [1, 14]: 0.8
fold induction at 50 µM (P. aeruginosa; [15]): 0.9
fold induction at 50 µM [2, 16]: 0.9
